The results in this text go back to ChEMBL document CHEMBL1201862, “PubChem BioAssay data set” (2004).

The structures appear in SMILES notation. Calls of active or inactive are those of the source. Bounds are passed on as bounds.

One experiment deals with T1, Heat shock factor protein 1 (Mus musculus, UniProt P38532).
T1 sequence (P38532 whole entry): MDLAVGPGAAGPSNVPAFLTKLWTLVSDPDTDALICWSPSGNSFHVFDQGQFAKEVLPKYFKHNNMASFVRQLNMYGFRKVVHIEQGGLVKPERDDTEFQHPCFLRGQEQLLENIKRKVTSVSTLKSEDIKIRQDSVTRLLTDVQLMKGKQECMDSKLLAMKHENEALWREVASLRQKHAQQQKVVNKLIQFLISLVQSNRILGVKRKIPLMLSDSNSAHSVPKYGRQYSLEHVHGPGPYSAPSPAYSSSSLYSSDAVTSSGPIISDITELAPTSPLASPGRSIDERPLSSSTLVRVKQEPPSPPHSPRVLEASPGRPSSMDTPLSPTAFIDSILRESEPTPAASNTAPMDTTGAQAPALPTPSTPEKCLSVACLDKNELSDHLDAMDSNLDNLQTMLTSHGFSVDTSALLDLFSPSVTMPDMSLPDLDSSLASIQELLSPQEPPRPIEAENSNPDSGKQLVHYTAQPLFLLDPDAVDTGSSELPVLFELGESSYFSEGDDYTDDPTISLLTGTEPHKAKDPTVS
Kind of experiment: HSF1 potentiators in luciferase reporter cells, confirmation, cell-based, NIH3T3, luminescence, dose retest (AID 435004).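 Note: stress induced by proteasome inhibitor MG132 added 30 min after compound; luciferase reporter driven by HSF1 response element in NIH3T3 cells; actives raise luminescence as potentiators of the MG132 stress response.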 Format: functional.
Settings: not given
(In general: A reporter such as luciferase makes a cellular process visible.)
The term EC50 denotes the concentration giving half of the maximal effect. Regarding `COc1ccc(C(=O)NC(=S)N2CCCCC2c2cccnc2)cc1OC` (stereo not given), the EC50 is > 260 µM (inactive).

For the molecule `COc1ccc(-c2nc3scc(-c4ccccc4)n3n2)cc1`, the EC50 was > 260 µM (inactive).

Regarding `COc1cc(/C=C(/C#N)C(=O)c2c(C)[nH]c3ccccc23)ccc1OCC#N`, the EC50 is > 260 µM (inactive).

With `O=C(Nc1ccccc1C(=O)OCC(=O)c1c[nH]c2ccccc12)c1ccco1`, the EC50 was 55.3 µM (active).

As to `CCN(CC(=O)NC(C)C)Cc1nc(O)c2c3c(sc2n1)CCC3`, the EC50 was > 260 µM (inactive).

For `NC(=O)CSC1=N/C(=C\c2ccco2)C(=O)N1c1ccc(OC(F)F)cc1`, the EC50 was 13.7 µM (active).

`COC(=O)c1c(C)oc2ccc(N(C(=O)Oc3ccccc3)S(=O)(=O)c3ccccc3)cc12`: the EC50 was > 260 µM (inactive).

Regarding `CC(C)C(=O)N1CCC(n2nccc2NC(=O)CCOc2ccccc2)CC1`, the EC50 was > 260 µM (inactive).

For `CCNC(=O)C(=O)NCc1ccncc1`, the EC50 is > 260 µM (inactive).

Turning to `CC(C)n1cc(/C=N/NC(=O)COc2cccc3cccnc23)c2ccccc21`, the EC50 is 75.1 µM (active).

System in a further experiment: not listed separately
Kind of experiment: inhibitors of intracellular T. cruzi replication, confirmation, NIH3T3 host cells, beta-gal luminescence (AID 2044).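 Note: intracellular parasites grown in NIH/3T3 mouse fibroblasts as host cells; luminescent beta-galactosidase reporter signal from transgenic T. cruzi replicating inside host cells; inhibitors lower the luminescence signal.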 In kind it is functional, cell-based.
Settings: not given
For the molecule `COc1ccc(C(=O)NC(=S)N2CCCCC2c2cccnc2)cc1OC` (stereo not given), the EC50 is 1.32 µM (active).

The target in the next experiment is Cytochrome P450 2C9 (Homo sapiens, UniProt P11712).
Cytochrome P450 2C9, sequence (P11712 whole entry): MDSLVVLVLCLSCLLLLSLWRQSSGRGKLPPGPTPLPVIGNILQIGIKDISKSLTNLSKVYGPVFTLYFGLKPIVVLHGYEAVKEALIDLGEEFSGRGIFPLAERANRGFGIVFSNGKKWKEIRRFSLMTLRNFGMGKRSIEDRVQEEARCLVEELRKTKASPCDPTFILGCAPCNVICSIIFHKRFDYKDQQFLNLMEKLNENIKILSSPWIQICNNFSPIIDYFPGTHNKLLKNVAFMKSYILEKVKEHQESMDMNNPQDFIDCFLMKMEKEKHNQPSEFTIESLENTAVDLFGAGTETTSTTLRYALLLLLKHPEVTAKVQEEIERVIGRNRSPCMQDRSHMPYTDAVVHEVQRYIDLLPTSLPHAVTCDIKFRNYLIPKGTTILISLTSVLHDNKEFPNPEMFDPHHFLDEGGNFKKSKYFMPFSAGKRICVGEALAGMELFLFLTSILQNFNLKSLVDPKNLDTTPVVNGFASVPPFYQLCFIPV
Settings: not given
One may read the AC50 as the concentration giving half of the maximal activity seen. Regarding `COC(=O)Cc1c(C)nc2nc(NCc3ccccc3OC)nn2c1O`, the AC50 was 22.4 µM (inconclusive).

`COCCn1c(=O)cnc2cnc(Nc3cccc(OC)c3)nc21`: the AC50 was 25.1 µM (inconclusive).

As for `Cc1oc(-c2ccccc2Cl)nc1CSCC(=O)NC1CC1`, the AC50 was 20 µM (inconclusive).

In the case of `CNC(=S)N1CCN(c2ccccc2OC)CC1`, the AC50 is 14.1 µM (inconclusive).

Turning to `Cc1ccc(OCC(=O)NC2=NCCS2)cc1`, the AC50 was 10 µM (inconclusive).

In the case of `CCn1c(SCc2ccc(Cl)cc2Cl)nc2nc3c(cc2c1=O)CCCC3`, the half-maximal activity concentration (AC50) is 5.01 µM (inconclusive).

Regarding `CCOC(=O)[C@H](N)/C=C(\C)CP(=O)(O)O`, the AC50 is 25.1 µM (inconclusive).

System in the next experiment: not listed separately
Kind of experiment: cytotoxicity toward NIH3T3 fibroblasts, dose response, counter-screen, cell-based, ATP luminescence, mouse fibroblasts (AID 2010).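 Note: cells exposed to compound for about 90 hours before reading.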 In kind it is functional.
Settings: not given
(A counterscreen serves to expose hits that act by an unwanted route or on another target.)
On to `COc1ccc(C(=O)NC(=S)N2CCCCC2c2cccnc2)cc1OC` (stereo not given), for which the EC50 is listed as > 60 µM (not active).

System in a further experiment: not listed separately
Kind of experiment: HEp-2 cell cytotoxicity, dose response, cytotoxicity control for RSV inhibitor project, HTS (AID 2410). Conditions: human respiratory syncytial virus. In kind it is functional.
A word on the CC50: it is the concentration that lowers cell viability or growth by half. In the case of `CCC(C)Oc1ccc(/C=C/c2nc(O)nc(O)c2[N+](=O)[O-])cc1OC` (stereo not given), the CC50 was 12.9 µM (active).

`COc1ccc(-c2cc(OC)c3ccccc3n2)cc1`: the CC50 is > 50 µM (active).

For `Oc1ncnc2scc(-c3ccc(Br)cc3)c12`, the CC50 is > 50 µM (active).

As to `COc1ccc(C)cc1Nc1nc(N)c2ccccc2n1`, the CC50 was > 50 µM (active).

As for `CC(C)C(=O)N1CCN(c2c(Cl)cccc2[N+](=O)[O-])CC1`, the CC50 is 16.3 µM (active).

Take `COc1ccccc1Nc1ncc(-c2cccs2)s1`: the CC50 is 43 µM (active).

Regarding `COC(=O)c1ccc2c(=O)n(CCO)c(=S)[nH]c2c1`, the CC50 was 25.2 µM (active).

Turning to `NS(=O)(=O)c1cccc(NC(=O)COC(=O)c2cc(-c3ccc(Cl)cc3)nc3ccccc23)c1`, the CC50 is 18.5 µM (active).

With `CNc1cc([N+](=O)[O-])ccc1OCc1ccccc1`, the CC50 was 18.7 µM (active).

As to `COc1ccc(/C=N/N=C(\N)c2nonc2N)cc1OC`, the CC50 is 30.9 µM (active).

For `CN(C)/C=N/c1nc(-c2ccc3ccccc3c2)cs1`, the CC50 was 22.8 µM (active).
